In brackets after ≈: the same amount, converted by molar mass.

Assay type in all cases: functional
Assay [1] concerns Mycobacterium tuberculosis. Nature of the assay: Antimycobacterial activity against multidrug-resistant Mycobacterium tuberculosis Praha 131 after 14 days by micromethod. The following applies: Praha 131, 336 h.
Assay [2] deals with Mycobacterium tuberculosis. Briefly: Antimycobacterial activity against multidrug-resistant Mycobacterium tuberculosis 234/2005 after 14 days by micromethod. The following applies: 234/2005, 336 h.
Assay [3] concerns Mycobacterium tuberculosis. Nature of the assay: Antimycobacterial activity against multidrug-resistant Mycobacterium tuberculosis Praha 1 after 21 days by micromethod. As to conditions: Praha 1, 504 h.
For assay [4], the system named is Mycobacterium tuberculosis. Briefly: Antimycobacterial activity against multidrug-resistant Mycobacterium tuberculosis Praha 131 after 21 days by micromethod. The following applies: Praha 131, 504 h.
Assay [5] concerns Mycobacterium tuberculosis. Nature of the assay: Antimycobacterial activity against multidrug-resistant Mycobacterium tuberculosis 8666/2010 after 14 days by micromethod. As to conditions: 8666/2010, 336 h.
Assay [6] has as its system Mycobacterium tuberculosis. Nature of the assay: Antimycobacterial activity against multidrug-resistant Mycobacterium tuberculosis 8666/2010 after 21 days by micromethod. As to conditions: 8666/2010, 504 h.
Assay [7] relates to Mycobacterium tuberculosis. Briefly: Antimycobacterial activity against multidrug-resistant Mycobacterium tuberculosis 9449/2007 after 14 days by micromethod. The following applies: 9449/2007, 336 h.
For assay [8], the system named is Mycobacterium tuberculosis. Nature of the assay: Antimycobacterial activity against multidrug-resistant Mycobacterium tuberculosis Praha 4 after 21 days by micromethod. The following applies: Praha 4, 504 h.
Assay [9] deals with Mycobacterium tuberculosis. Nature of the assay: Antimycobacterial activity against multidrug-resistant Mycobacterium tuberculosis Praha 1 after 14 days by micromethod. As to conditions: Praha 1, 336 h.
The subject of assay [10] is Mycobacterium tuberculosis. Nature of the assay: Antimycobacterial activity against multidrug-resistant Mycobacterium tuberculosis 7357/1998 after 14 days by micromethod. As to conditions: 7357/1998, 336 h.
The subject of assay [11] is Mycobacterium tuberculosis. Nature of the assay: Antimycobacterial activity against multidrug-resistant Mycobacterium tuberculosis 9449/2007 after 21 days by micromethod. As to conditions: 9449/2007, 504 h.
The subject of assay [12] is Mycobacterium tuberculosis. Briefly: Antimycobacterial activity against multidrug-resistant Mycobacterium tuberculosis 7357/1998 after 21 days by micromethod. As to conditions: 7357/1998, 504 h.
Assay [13] concerns Mycobacterium tuberculosis. Nature of the assay: Antimycobacterial activity against multidrug-resistant Mycobacterium tuberculosis Praha 4 after 14 days by micromethod. As to conditions: Praha 4, 336 h.
The test system of assay [14] is Mycobacterium tuberculosis. Briefly: Antimycobacterial activity against multidrug-resistant Mycobacterium tuberculosis 234/2005 after 21 days by micromethod. As to conditions: 234/2005, 504 h.

For orientation: MIC means the lowest concentration found to suppress growth. Lower therefore signals a more susceptible organism. As to `O=[N+]([O-])c1cc(-c2nnc(SCc3ccc(Br)cc3)o2)cc([N+](=O)[O-])c1`, the MIC is 0.03 µM (≈ 0.0131 µg/mL) in assay [1]; 0.03 µM (≈ 0.0131 µg/mL) in assay [2]; 0.06 µM (≈ 0.0262 µg/mL) in [3]; 0.06 µM (≈ 0.0262 µg/mL) in assay [4]; 0.03 µM (≈ 0.0131 µg/mL) in assay [5]; 0.06 µM (≈ 0.0262 µg/mL) in [6]. Besides, the minimum inhibitory concentration (MIC) stood at 0.03 µM (≈ 0.0131 µg/mL) in assay [7]; 0.06 µM (≈ 0.0262 µg/mL) in assay [8]; 0.03 µM (≈ 0.0131 µg/mL) in assay [9]; 0.03 µM (≈ 0.0131 µg/mL) in assay [10]; 0.06 µM (≈ 0.0262 µg/mL) in assay [11]; 0.06 µM (≈ 0.0262 µg/mL) in [12]. In addition, the figures for the MIC in assay [13] and in assay [14] were 0.03 µM (≈ 0.0131 µg/mL) and 0.06 µM (≈ 0.0262 µg/mL), respectively.

The values above are taken from ChEMBL document CHEMBL4002566, “S-substituted 3,5-dinitrophenyl 1,3,4-oxadiazole-2-thiols and tetrazole-5-thiols as highly efficient antitubercular agents” (Eur J Med Chem, 2017).
